Laboratory results published in patent US20230405003A1, “APPLICATION OF THYMIDINE DERIVATIVE IN PREPARATION OF DRUGS” (ONQUALITY PHARMACEUTICALS CHINA LTD., priority 2020, published 2023).

Test system: HaCaT cells
Assay: Relief of 5-FU proliferative toxicity to HaCaT cells (CCK-8 cell survival)
Assay type: cell-based
Details: Homo sapiens, HaCaT, increase vs Group of 5-FU, 5-FU 20 μM, 48 h, read-out: Cell Survival Rate; for activation at 1 µM: compound 1 μM; for activation at 10 µM: compound 10 μM; for activation at 100 µM: compound 100 μM; for activation at 5 µM: compound 5 μM; for activation at 50 µM: compound 50 μM; for activation at 200 µM: compound 200 μM; for activation at 500 µM: compound 500 μM; for activation at 1000 µM: compound 1000 μM
Description: The cultured skin cell HaCaTs were digested, counted, and inoculated into a 96-well plate with 5000-10000 cells in each well. After 24 h of culture, the wells were divided into Group of blank solvent control, Group of 5-FU, Group of 5-FU+thymidine derivative, Group of 5-FU+the combination of thymidine derivative and uridine derivative. […] adding a solution of 5-FU and a solution of thymidine derivative (the final concentrations of 5-FU and thymidine derivative are shown in Table 3, the solution of thymidine is an aqueous solution, while the solutions of thymidine derivatives are all DMSO solutions); Group of 5-FU+the combination of thymidine derivative and uridine derivative: adding a solution of 5-FU and a mixed solution of thymidine derivative and uridine derivative (the final concentrations of the solution of 5-FU and the mixed solution of thymidine derivative+uridine derivative are shown in Table 3, the solution of thymidine is an aqueous solution, while the mixed solutions of thymidine derivative+uridine derivative are all DMSO solutions); Group of blank solvent control: adding the same type of solution as those of the corresponding Group of 5-FU or Group of 5-FU+thymidine derivative (or the mixed solution of thymidine derivative+uridine derivative) in equal volume. Group of blank solvent control was used as control to exclude the influence of the solvents in Group of 5-FU and Group of 5-FU+thymidine derivative (or the mixed solution of thymidine derivative+uridine derivative) on the results. After additional 48 hours of culture, a Cell Counting Kit-8 (CCK-8) detection kit (C0037, purchased from Shanghai Beyotime Biotechnology) is used to determine the cell survival rate, thereby calculating the proliferative toxicity of 5-Fu/5-DFUR on cells and the relieving effect of the thymidine derivative (or the mixed solution of thymidine derivative+uridine derivative) on the proliferative toxicity. Using GraphPad Prism 6.0 software, the results were statistically analyzed by t-test and plotted.
(§1) Table 3 lists the combinations of 5-FU and thymidine derivative (or the mixed solution of thymidine derivative+uridine derivative), and the corresponding experimental results (wherein the data in the column of cell survival indicate the corresponding increased percentage of the cell survivals of Group of 5-FU+thymidine derivative or Group of 5-FU+the combination of thymidine derivative and uridine derivative compared with the Group of 5-FU). FIGS. 3-10 list the experimental results of several representative compounds.
The effect of thymidine derivative or a combination of thymidine derivative and uridine derivative on relieving the proliferative toxicity of a chemotherapeutical drug (5-FU) to HaCaT cells was tested according to the method in Examples 2-29. The test thymidine derivative or the combination of thymidine derivative and uridine derivative, as well as the final concentration of the test compounds were shown in Table 7.
as §1, with “7” for “3”, “15-21” for “3-10”, “exemplary” for “representative”

SMILES | activation at 1 µM | activation at 10 µM | activation at 100 µM | activation at 5 µM | activation at 50 µM | activation at 200 µM | activation at 500 µM | activation at 1000 µM | activation at 1500 µM (compound 1500 μM)
Cc1cn([C@H]2C[C@H](OC(=O)OCC(C)C)[C@@H](COC(=O)OCC(C)C)O2)c(=O)[nH]c1=O [T20] | 48 to 58% | 58 to 66% | 55 to 65% |  |  |  |  |  | 
Cc1cn([C@H]2C[C@H](O)[C@@H](COC(=O)OC3CC3)O2)c(=O)[nH]c1=O [T11] | -5 to 0% | 27 to 33% | 38 to 45% | 11 to 16% | 35 to 45% | 38 to 46% | 40 to 50% | 7 to 14% | 
Cc1cn([C@H]2C[C@H](OC(=O)OCC(C)(C)C)[C@@H](COC(=O)OCC(C)(C)C)O2)c(=O)[nH]c1=O [T21] | 5 to 13% | 19 to 26% |  |  |  |  |  |  | 
Cc1cn([C@H]2C[C@H](OC(=O)C3CCCC3)[C@@H](COC(=O)C3CCCC3)O2)c(=O)[nH]c1=O [T8] | 15 to 25% | 35 to 45% | 40 to 47% | 27 to 37% | 32 to 39% | 3 to 9% |  |  | 
CC(=O)NC[C@H]1O[C@@H](n2cc(C)c(=O)[nH]c2=O)C[C@@H]1OC(C)=O [T17] | 15 to 25% | 18 to 26% | 25 to 35% |  |  | 30 to 40% | 35 to 45% |  | 
Cc1cn([C@H]2C[C@H](OC(=O)C3CC3)[C@@H](COC(=O)C3CC3)O2)c(=O)[nH]c1=O [T9] | -10 to -3% | 10 to 18% |  |  | 24 to 31% | 27 to 34% | 30 to 38% | 35 to 40% | 13 to 20%
Cc1cn([C@H]2C[C@H](OC(=O)C(C)(C)C)[C@@H](COC(=O)C(C)(C)C)O2)c(=O)[nH]c1=O [T24] | 27 to 35% | 21 to 27% |  |  |  |  |  |  | 
Cc1cn([C@H]2C[C@H](O)[C@@H](COC(=O)OCc3ccccc3)O2)c(=O)[nH]c1=O [T19] | 35 to 45% | 60 to 70% | 58 to 67% |  |  |  | 35 to 45% |  | 
